# Measured values as given in patent US11401274B2, “[1,2,4]Triazolo derivatives as PDE1 inhibitors for the treatment of diabetes” (Eli Lilly and Company, priority 2017, dated 2022).
# Tests used:
# Format in all cases: biochemical
# human PDE1B = human PDE1B (Homo sapiens (Human), UniProt Q01064); assay: Ca2+ calmodulin dependent PDE enzyme assay (SPA, [3H]cAMP), PDE1B; details: [3H]cAMP 47 nM; enzyme 0.074 nM; read-out: PDE 1B IC50 (nM) ± SD (n = number of runs)
# From the text: (§1) The nucleotide sequences encoding full-length human PDE1A (NP_001003683.1) and PDE1C (NP_005011.1) are inserted into pFastBac1 (Invitrogen) vector with an N-terminal HIS tag. The nucleotide sequences encoding full-length human PDE4D (NP_006194.2) and catalytic domain (residue 641-1141) of PDE3A (NP_000912.3) are inserted into pFastBac1 (Invitrogen) vector with a C-terminal HIS tag. The nucleotide sequences encoding full-length human PDE6A (NP_000431.2) and PDE6B (AAH00249.1) are inserted into pFastBacDual (Invitrogen) vector with an N-terminal HIS tag and N-terminal Flag tag, respectively, for production of PDE6A/6B dimer. Baculovirus generation and protein expression in Sf9 cells are carried out according to the protocol of Bac-to-Bac Baculovirus Expression system (Invitrogen). The nucleotide sequence encoding full-length human PDE1B (NP_000915.1) is inserted into pIEX4 (Novagen) with a C-terminal HIS tag, and both protein productions in Sf9 cells are carried out according to the vendor's protocol (Novagen). The His tagged PDE proteins are purified using Ni-NTA agarose (Qiagen) followed by size exclusion chromatography on a SUPERDEX© 200 column (GE Healthcare) in storage buffer (20 mM Tris-HCl, pH7.5, 150 mM NaCl, 10% Glycerol). The Flag tagged PDE proteins including PDE6A/6B are purified using anti-Flag M2-agarose (Sigma), after purification through NiNTA column chromatography and eluted in storage buffer (50 mM Tris-HCl, pH7.5, 150 mM NaCl, 10% Glycerol, 0.1 mg/ml Flag peptide). All purified proteins are stored at −80° C. in small aliquots.
# (§2) All 3′, 5′ cyclic nucleotide phosphodiesterase (PDE) enzyme activities are measured with a radiometric enzyme assay based on SPA detection system (scintillation proximity assay). Compounds to be tested are diluted in pure dimethyl sulfoxide (DMSO) using ten point concentration response curves. Maximal compound concentration in the reaction mixture is either 10 or 100 μM. Compounds at the appropriate concentration are pre-incubated with either of the PDE enzymes for 30 minutes before the reaction is started by the addition of substrate. Reactions are allowed to proceed for 60 minutes at room temperature. Next, reactions are stopped by addition of SPA beads. Samples are read 12 hours later in a MICROBETA™ TRILUX© Counter. “IC50” refers to the concentration of the compound that produces 50% of the maximal inhibitory response possible for that compound. IC50 values are calculated by plotting the normalized data vs. log [compound] and fitting the data using a four parameter logistic equation.
# (§3) PDE1B, PDE1A, and PDE1C are cloned and purified following standard protein generation procedures. The assay buffer is prepared to give a final concentration in the assay of 50 mM Tris-HCl, 50 mM MgC2, 4 mM CaCl2, 0.1% Bovine serum albumin and 6 U/ml Calmodulin in water, at pH 7.5. The final enzyme concentration is 0.25, 0.074 and 0.0012 nM, for PDE1A, PDE1B and PDE1C respectively. The reactions are started by addition of the substrate, [^3H]cAMP, to give a final concentration of 47 nM.
# human PDE4D = human PDE4D (Homo sapiens (Human), UniProt Q08499); assay: PDE enzyme assay using [3H]cAMP as substrate, PDE4D; details: [3H]cAMP 47 nM; enzyme 0.021 nM; read-out: PDE 4D IC50 (μm) ± SD (n = number of runs)
# Chain of human PDE4D (Q08499 other isoform, or with tags, fused parts or gaps): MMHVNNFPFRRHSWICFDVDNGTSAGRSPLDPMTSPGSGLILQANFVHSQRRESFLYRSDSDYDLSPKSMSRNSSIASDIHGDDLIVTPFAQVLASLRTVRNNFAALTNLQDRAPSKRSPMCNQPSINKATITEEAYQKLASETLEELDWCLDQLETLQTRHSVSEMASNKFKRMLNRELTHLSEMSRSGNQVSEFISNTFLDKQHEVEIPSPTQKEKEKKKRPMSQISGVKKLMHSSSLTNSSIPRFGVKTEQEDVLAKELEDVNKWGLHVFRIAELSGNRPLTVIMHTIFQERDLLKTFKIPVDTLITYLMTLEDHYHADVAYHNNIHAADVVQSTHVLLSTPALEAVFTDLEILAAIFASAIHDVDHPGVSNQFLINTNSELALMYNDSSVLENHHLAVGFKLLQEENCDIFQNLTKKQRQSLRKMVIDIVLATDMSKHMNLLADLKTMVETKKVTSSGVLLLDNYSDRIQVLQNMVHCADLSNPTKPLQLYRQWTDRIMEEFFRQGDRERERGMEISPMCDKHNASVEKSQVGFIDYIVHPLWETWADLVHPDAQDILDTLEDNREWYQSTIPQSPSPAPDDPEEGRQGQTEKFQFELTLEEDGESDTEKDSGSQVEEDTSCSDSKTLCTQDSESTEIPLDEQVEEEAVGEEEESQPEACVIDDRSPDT
# From the text: as §1, §2
# (§4) The following phosphodiesterase activities are measured using [3H]cAMP as reaction substrate: human PDE3A (catalytic domain) and human PDE4D. Both enzymes are cloned and purified following standard procedures. The assay buffer is prepared to give a final concentration in the assay of 50 mM Tris-HCl, 8.3 mM MgCl2, 1.7 mM ethylenediarninetetraacetic acid (EDTA) and 0.1% Bovine serum albumin at pH 7.5. Final enzyme concentrations are 0.008 and 0.021 nM for PDE3A and PDE4D, respectively. Reactions are started by addition of the substrate, [3H]cAMP, to give a final concentration of 47 nM.
# [1] = target: human PDE3A (catalytic domain) (Homo sapiens (Human), UniProt Q14432); assay: PDE enzyme assay using [3H]cAMP as substrate, PDE3A; details: [3H]cAMP 47 nM, enzyme 0.008 nM, read-out: PDE 3A IC50 (μm) ± SD (n = number of runs)
# Chain of human PDE3A (catalytic domain) (Q14432 641-1141): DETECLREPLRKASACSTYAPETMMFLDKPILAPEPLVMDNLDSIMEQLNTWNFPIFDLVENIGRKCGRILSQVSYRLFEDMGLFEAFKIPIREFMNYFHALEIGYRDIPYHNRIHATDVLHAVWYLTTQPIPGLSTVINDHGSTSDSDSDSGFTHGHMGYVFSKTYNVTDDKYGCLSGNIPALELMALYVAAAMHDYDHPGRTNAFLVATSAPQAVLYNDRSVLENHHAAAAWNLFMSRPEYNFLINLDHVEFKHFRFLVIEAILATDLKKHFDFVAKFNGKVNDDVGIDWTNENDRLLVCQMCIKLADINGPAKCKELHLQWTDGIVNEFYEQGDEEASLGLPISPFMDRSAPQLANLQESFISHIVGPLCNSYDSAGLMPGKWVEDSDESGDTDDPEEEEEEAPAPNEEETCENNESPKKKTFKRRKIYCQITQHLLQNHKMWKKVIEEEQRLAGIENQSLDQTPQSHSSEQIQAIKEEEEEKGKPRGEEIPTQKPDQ
# From the text: as §1, §2, §4
# human PDE1C = human PDE1C (Homo sapiens (Human), UniProt Q14123); assay: Ca2+ calmodulin dependent PDE enzyme assay (SPA, [3H]cAMP), PDE1C; details: [3H]cAMP 47 nM; enzyme 0.0012 nM; read-out: PDE 1C IC50 (nM) ± SD (n = number of runs)
# From the text: as §1, §2, §3
# human PDE1A = human PDE1A (Homo sapiens (Human), UniProt P54750); assay: Ca2+ calmodulin dependent PDE enzyme assay (SPA, [3H]cAMP), PDE1A; details: [3H]cAMP 47 nM; enzyme 0.25 nM; read-out: PDE 1A IC50 (nM) ± SD (n = number of runs)
# From the text: as §1, §2, §3
# human PDE6A/6B = human PDE6A/6B (Homo sapiens (Human), UniProt P16499+P35913); assay: PDE enzyme assay using [3H]cGMP as substrate, PDE6A/6B; details: [3H]cGMP 80 nM; enzyme 5 nM; read-out: PDE 6AB IC50 (μM) ± SD (n = number of runs)
# Chain of human PDE6A/6B (P16499 whole entry): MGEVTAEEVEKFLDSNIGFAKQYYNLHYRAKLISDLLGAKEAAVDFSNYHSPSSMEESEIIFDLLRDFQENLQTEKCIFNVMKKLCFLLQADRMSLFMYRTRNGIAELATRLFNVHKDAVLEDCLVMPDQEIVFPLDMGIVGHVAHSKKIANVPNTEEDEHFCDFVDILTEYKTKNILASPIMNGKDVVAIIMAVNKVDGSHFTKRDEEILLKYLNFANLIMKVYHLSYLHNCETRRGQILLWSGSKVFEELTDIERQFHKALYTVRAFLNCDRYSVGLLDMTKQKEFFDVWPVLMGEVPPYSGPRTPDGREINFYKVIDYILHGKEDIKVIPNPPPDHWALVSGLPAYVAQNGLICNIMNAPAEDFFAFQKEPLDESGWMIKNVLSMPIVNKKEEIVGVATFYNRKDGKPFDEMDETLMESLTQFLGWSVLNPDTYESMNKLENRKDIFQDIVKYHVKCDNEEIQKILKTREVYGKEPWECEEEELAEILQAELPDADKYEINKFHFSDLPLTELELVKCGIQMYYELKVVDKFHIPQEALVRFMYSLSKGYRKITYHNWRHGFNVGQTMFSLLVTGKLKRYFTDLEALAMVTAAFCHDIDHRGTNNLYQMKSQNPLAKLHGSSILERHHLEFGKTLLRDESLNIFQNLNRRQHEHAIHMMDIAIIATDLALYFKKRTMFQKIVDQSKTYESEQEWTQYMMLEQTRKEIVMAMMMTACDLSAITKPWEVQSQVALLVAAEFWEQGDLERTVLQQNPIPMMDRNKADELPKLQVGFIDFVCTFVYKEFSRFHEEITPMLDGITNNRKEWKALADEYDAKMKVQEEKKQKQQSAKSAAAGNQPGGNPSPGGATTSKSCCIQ
# Chain of human PDE6A/6B (P35913 other isoform, or with tags, fused parts or gaps): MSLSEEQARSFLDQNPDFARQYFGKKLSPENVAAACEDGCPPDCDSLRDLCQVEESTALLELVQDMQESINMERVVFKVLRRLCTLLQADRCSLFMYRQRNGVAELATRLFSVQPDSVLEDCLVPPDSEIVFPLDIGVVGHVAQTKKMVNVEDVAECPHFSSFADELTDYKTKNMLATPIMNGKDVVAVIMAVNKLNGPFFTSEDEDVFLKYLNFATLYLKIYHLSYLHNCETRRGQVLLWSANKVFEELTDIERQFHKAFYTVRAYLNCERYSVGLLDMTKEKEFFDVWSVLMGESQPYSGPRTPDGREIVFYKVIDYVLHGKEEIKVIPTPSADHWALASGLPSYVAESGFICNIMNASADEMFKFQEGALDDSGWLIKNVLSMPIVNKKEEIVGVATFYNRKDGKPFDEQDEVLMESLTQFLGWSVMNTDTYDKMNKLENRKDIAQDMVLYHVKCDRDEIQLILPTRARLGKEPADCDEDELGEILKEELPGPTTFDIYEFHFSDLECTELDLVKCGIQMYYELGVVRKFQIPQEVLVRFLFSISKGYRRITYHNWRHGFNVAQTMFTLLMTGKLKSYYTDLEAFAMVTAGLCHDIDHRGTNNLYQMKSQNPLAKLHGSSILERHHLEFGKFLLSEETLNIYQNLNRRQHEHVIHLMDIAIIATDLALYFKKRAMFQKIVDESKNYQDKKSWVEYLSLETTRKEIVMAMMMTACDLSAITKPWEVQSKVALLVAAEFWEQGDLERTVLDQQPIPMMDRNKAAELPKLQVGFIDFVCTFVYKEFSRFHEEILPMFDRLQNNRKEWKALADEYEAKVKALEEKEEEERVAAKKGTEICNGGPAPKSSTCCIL
# From the text: as §1, §2
# The following phosphodiesterase activities are measured using [3H]cGMP as reaction substrate: human PDE6A/6B. The catalytic active form of human PDE6 is a dimer composed of a α (human PDE6A) and β subunit (human PDE6B). The dimer of human PDE6A/6B is produced by the expression and purification strategy, using two purification steps, i.e., NiNTA and anti-FLAG Sepharose chromatography. The assay buffer is prepared to give a final concentration in the assay of 50 mM Tris-HCl, 8.3 mM MgC2, 1.7 mM EDTA and 0.1% Bovine serum albumin at pH 7.5. The final enzyme concentration is 5 nM. The reactions are started by addition of the substrate, [3H]cGMP, to give a final concentration of 80 nM.
smiles,measurement,setting,value
"CCCCn1c2c(n3c(C4(C5CC5)CC4)nnc3c1=O)CCCC2 [Example 2, 1-([1,1′-bi(cyclopropan)]-1-yl)-5-butyl-6,7,8,9-tetrahydro-[1,2,4]triazolo[4,3-a]quinoxalin-4(5H)-one]",IC50,human PDE1B,4.1 nM
same,IC50,human PDE4D,13200 ± 2500 nM
same,IC50,[1],> 100000 nM
same,IC50,human PDE1C,1.4 ± 0.9 nM
same,IC50,human PDE1A,3 ± 2.1 nM
same,IC50,human PDE6A/6B,> 10 µM
"O=c1c2nnc(C3(C4CC4)CC3)n2c2c(n1CC1CC1)CCCCC2 [Example 8, 1-([1,1′-bi(cyclopropan)]-1-yl)-5-(cyclopropylmethyl)-5,6,7,8,9,10-hexahydro-4H-cyclohepta[e][1,2,4]triazolo[4,3-a]pyrazin-4-one]",IC50,human PDE1B,6.6 nM
same,IC50,human PDE4D,12100 nM
same,IC50,[1],> 100000 nM
same,IC50,human PDE1C,4.7 ± 1.4 nM
same,IC50,human PDE1A,6.5 ± 2.6 nM
same,IC50,human PDE6A/6B,> 10 µM
"O=c1c2nnc(C3(C4CC4)CC3)n2c2c(n1CC1CC1)COCC2 [Example 6, 1-(1-cyclopropylcyclopropyl)-5-(cyclopropylmethyl)-3-oxo-7,8-dihydro-5H-pyrano-[1,2,4]triazolo[4,3-a]quinoxalin-4-one]",IC50,human PDE1B,14.9 nM
same,IC50,human PDE4D,39200 ± 16500 nM
same,IC50,[1],> 100000 nM
same,IC50,human PDE1C,7.6 ± 1.9 nM
same,IC50,human PDE1A,8.4 ± 3.8 nM
same,IC50,human PDE6A/6B,> 10 µM
"CCCCn1c2c(n3c(C4(C5CC5)CC4)nnc3c1=O)COCC2 [Example 4, 1-([1,1′-bi(cyclopropan)]-1-yl)-5-butyl-5,6,7,9-tetrahydro-4H-pyrano[4,3-e][1,2,4]triazolo[4,3-a]pyrazin-4-one]",IC50,human PDE1B,7.8 nM
same,IC50,human PDE4D,21800 nM
same,IC50,[1],> 100000 nM
same,IC50,human PDE1C,1.5 ± 0.5 nM
same,IC50,human PDE1A,6.3 ± 0.4 nM
same,IC50,human PDE6A/6B,> 10 µM
"CCCn1c2c(n3c(C4(C5CC5)CC4)nnc3c1=O)CCCC2 [Example 1, 1-([1,1′-bi(cyclopropan)]-1-yl)-5-propyl-6,7,8,9-tetrahydro-[1,2,4]triazolo[4,3-a]quinoxalin-4(5H)-one]",IC50,human PDE1B,3.1 nM
same,IC50,human PDE4D,12700 nM
same,IC50,[1],> 100000 nM
same,IC50,human PDE1C,2.6 ± 3.3 nM
same,IC50,human PDE1A,2.9 ± 1.9 nM
same,IC50,human PDE6A/6B,> 10 µM
"O=c1c2nnc(C3(C4CC4)CC3)n2c2c(n1CC1CCC1)CCOC2 [Example 5, 1-([1,1′-bi(cyclopropan)]-1-yl)-5-(cyclobutylmethyl)-5,6,7,9-tetrahydro-4H-pyrano[4,3-e][1,2,4]triazolo[4,3-a]pyrazin-4-one]",IC50,human PDE1B,4.2 nM
same,IC50,human PDE4D,19200 nM
same,IC50,[1],> 100000 nM
same,IC50,human PDE1C,1.9 ± 0.4 nM
same,IC50,human PDE1A,5.8 ± 2.3 nM
same,IC50,human PDE6A/6B,> 10 µM
"CCCCn1c2c(n3c(C4(C5CC5)CC4)nnc3c1=O)CCOC2 [Example 7, 1-([1,1′-bi(cyclopropan)]-1-yl)-5-butyl-8,9-dihydro-6H-pyrano[3,4-e][1,2,4]triazolo[4,3-a]pyrazin-4(5H)-one]",IC50,human PDE1B,12 nM
same,IC50,human PDE4D,> 100000 nM
same,IC50,[1],> 100000 nM
same,IC50,human PDE1C,2 ± 0.1 nM
same,IC50,human PDE1A,5.2 ± 2 nM
same,IC50,human PDE6A/6B,> 10 µM
"O=c1c2nnc(C3(C4CC4)CC3)n2c2c(n1CC1CC1)CCOC2 [Example 3, 1-([1,1′-bi(cyclopropan)]-1-yl)-5-(cyclopropylmethyl)-5,6,7,9-tetrahydro-4H-pyrano[4,3-e][1,2,4]triazolo[4,3-a]pyrazin-4-one]",IC50,human PDE1B,8.7 nM
same,IC50,human PDE4D,16400 ± 300 nM
same,IC50,[1],> 100000 nM
same,IC50,human PDE1C,5.2 ± 0.6 nM
same,IC50,human PDE1A,9.8 ± 2.2 nM
same,IC50,human PDE6A/6B,> 10 µM
